The results in this text go back to patent US20240041842A1, “PHARMACEUTICAL COMPOSITION FOR INHIBITING CANCER METASTASIS” (INDUSTRY-ACADEMIC COOPERATION FOUNDATION, YONSEI UNIVERSITY, priority 2021, published 2024).

Holding throughout (assay type): cell-based, human
The test system of experiment [1] is Snail. In words: Western blot of Snail protein. The method, then:
(§1) Cells were harvested, washed with PBS, and lysed on ice with RIPA buffer containing protease and phophatase inhibitor cocktail (GenDEPOT). After 15 minutes of incubation, the cell lysates were centrifuged at 15,000 rpm at 4° C. for 10 minutes. Protein concentration was measured by Bradford assay (Bio-rad, 500-0006). Equal amounts of total protein were placed on an SDS gel electrophoresis and transferred to a PVDF membrane (Bio-rad). The membrane was blocked with 5% skim milk for 1 hour at room temperature and incubated overnight at 4° C. with primary antibody in a buffer containing 0.1% Tween-20. Subsequently, the membrane was washed three times with Tween-PBS buffer and incubated for 1 hour at room temperature using a secondary antibody diluted in blocking buffer containing 0.1% Tween-20. Subsequently, the membrane was washed three times for 10 minutes each using Tween-TBS. Densitometry of Western blots was measured using ImageJ software.
[…] For autophagy activation, cells were'treated with 2 μM rapamycin (Selleckchem, S1039) for 5 hours. Modulation of intracellular ROS was performed with N-acetyl-cysteine (10 mM) (Sigma, A7250), hydrogen peroxide solution (100 μM to 200 μM) (Sigma, 216763), or CDDO-ME NRF2 activator (50 nM, 100 nM) (Sellckchem, S8078) for 4 to 24 hours. Intercellular calcium signal control was performed for 1 hour using BAPTA-AM (20 μM) (Sigma, A1076) or Calmidazolium Chloride (2.5 μM) (Sigma, C3930). […] For TFEB protein phosphorylation, tacrolimus (1 μM) (Selleckchem, S5003) was treated for 1 hour. […] During siRNA treatment, each siRNA was treated to a concentration of 40 to 50 nM and treated together with Lipofectamine RNAiMax (Thermo Fisher Scientific, 13778150) for transformation, and were used for experiments 48 to 72 hours later. For cDNA treatment, each cDNA was treated to a concentration of 1 to 2 μg in a 6-well plate and treated with Lipofectamine 2000 (Thermo Fisher Scientific, 11668019) for transformation, and were used for experiments 24 hours later.
A general note: Immunoblotting shows a protein as a band on a membrane.

The next experiment deals with KL cell lines. In words: Matrigel invasion assay, KL cell lines. As to conditions: in two of the three KL cell lines; AMG-510 1 uM. How it is done:
(§2) For the 2D invasion assay, the inserts were pre-coated with 300 μg/ml Matrigel (Coming, 354234). After staining with […] dye (Bio-Rad, 1450013), 1×10^5 live cells per 8-um-pore cell-culture insert (Costar. 3422) were seeded in 0.5% ACL medium. 10% ACL medium was added to the outside of the insert. In the case of lung cancer and pancreatic cancer cell lines, after inoculation in 1% RPMI medium, 20% RPMI medium was added to the outside of the insert. Plates were incubated for 24 hours at 37° C. After incubation, the insert was fixed with 3.7% PFA, washed, stained with 0.4% crystal violet, and the upper membrane was washed and dried.

The subject of a further experiment is β-catenin. Kind of experiment: Western blot of β-catenin. As to conditions: HBEC-KL; CHIR99021 3 uM, 5 hours, in the presence of 50 uM CQ. How it is done:
as §1, with “FIG. 5K illustrates the expression level of Snail protein after treatment with the GSK3β inhibitor CHIR99021 (3 uM, treatment for 5 hours) in the presence of 50 uM chloroquine (CQ) in the HBEC-KL cell line. Cells” for “Cells”

For experiment [2], the system named is Snail. In words: Western blot of Snail protein. The conditions noted are these: HBEC-KL.
The test system of a further experiment is phospho-RPS6 (p-S6). In words: Western blot of phospho-RPS6 (p-S6). The conditions noted are these: HBEC-KL; acetate or SAHA treatment. The method, then:
as §1

A further experiment has as its system acetylated Snail. Kind of experiment: Immunoprecipitation-immunoblot of acetylated Snail. The conditions noted are these: HBEC-KL. The method, then: (§3) Cell lysates (1 μg protein) were incubated overnight at 4° C. on anti-FLAG® M2 Affinity Gel (Sigma, A2220) or anti-acetyl-lysine antibody coated agarose (ImmuneChem Pharmaceuticals, ICP0388). The immunoprecipitate was then washed three times in IP buffer, and the immunoprecipitated complex was dissolved and separated by boiling in IP buffer for 5 minutes.
For SDS-PAGE electrophoresis, the immunoprecipitated complex was transferred to a nitrocellulose membrane and the membrane was blocked and then incubated for 1 hour at room temperature with Primary antibody and secondary antibody (VeriBlot for IP Detection Reagent (HRP) (Abcam, #ab131366), and anti-mouse IgG tor IP (HRP) (Abeam, #ab131368)).
After washing 3 times, the membrane was incubated with the secondary antibody.

Another experiment has as its system HBEC-KL cell line. Kind of experiment: Matrigel invasion assay, HBEC-KL cell line. The method, then:
as §2

The test system of a further experiment is TFEB (CLEAR network). In words: CLEAR motif-driven luciferase reporter assay. The conditions noted are these: HBEC-KL. The method, then:
To compare the TFEB reporter activity with other cell lines (HBEC30KT, HBEC-K, and HBEC-KL), the pGL4.70 5× CLEAR Rluc and pSt4.14 Fluc vectors were transiently co-transfected and normalized luciferase activity was measured in Dual-Measured by Luciferase® Reporter Assay System (Promega, E1910),
(In general: In a reporter assay the amount or activity of a reporter protein is the signal.)

Experiment [3] deals with Snail. In words: Immunoprecipitation-immunoblot of phosphorylated/acetylated or K48 polyubiquitinated Snail in A549 cells. The conditions noted are these: 25 uM C646 or 3 uM SAHA. The method, then:
FIG. 9K illustrates the immunoprecipitation-immunoblot result of phosphorylated/acetylated or K48 polyubiquitinated Snail assay after transfection of wild-type Snail (pFLAG-Snail WT) or acetylation-defective Snail mutant (pFLAG-SnailK146R) into A549 cells and/or treatment with 25 uM C646.
FIG. 9L illustrates the immunoprecipitation-immunoblot results of the polyubiquitinated Snail assay after transfection of HA-ubiquitin and wild-type Snail (pFLAG-Snail WT) or acetylation-defective Snail mutant (pFLAG-SnailK146R) into A549 cells and/or treatment with 25 uM C646 for 2 hours (left) and/or treatment of 3 uM SAHA for 5 hours (right).
as §3, with “For immunoprecipitation, equal amounts of lysate and Co-IP buffer (40 mM HEPES, pH 7.4, 120 mM NaCl, 2 mM EDTA, 0.3% CHAPS (Sigma, 10810118001), 10 mM pyrophosphate (Sigma, 221368), 10 mM glycerophosphate (Sigma, G9422), 50 mM NaF, phosphatase and protease inhibitor mixture) were mixed. Cell” for “Cell”

The subject of experiment [4] is TFEB. Kind of experiment: Western blot / immunoprecipitation-immunoblot of TFEB (acetylated, phosphorylated, total). As to conditions: HBEC-KL; for reduced TFEB protein level in the chloroquine (CQ) treatment condition: 50 uM CQ 24 hours with 10 mM acetate 24 hours or 3 uM SAHA 15 hours; for acetylated TFEB level / phosphorylated TFEB level / total TFEB protein level: 10 mM acetate 24 hours or 3 μM SAHA. The method, then: FIG. 11J illustrates a diagram of immunoblot results of the […] a control (left), and the immunoprecipitation-immunoblot result of TFEB acetylated HBEC-KL cells under the same conditions (right) is also shown,
as §1
as §3, with “For immunoprecipitation, equal amounts of lysate and Co-IP buffer (40 mM HEPES, pH 7.4, 120 mM NaCl, 2 mM EDTA, 0.3% CHAPS (Sigma, 10810118001), 10 mM pyrophosphate (Sigma, 221368), 10 mM glycerophosphate (Sigma, G9422), 50 mM NaF, phosphatase and protease inhibitor mixture) were mixed. Cell” for “Cell”

A further experiment relates to LC3. In words: Autophagic flux (LC3 Western blot, mRFP-GFP-LC3 lysosomal delivery assay). As to conditions: HBEC-KL; 10 mM acetate 24 hours or 3 uM SAHA. The method, then: as §1, with “Representative GFP-LC3, RFP-LC3 and overlapping images are shown. In addition, red puncta (mRFP+/GFP−) and yellow puncta (mRFP+/GFP+) per cell were quantified and graphed (n=15 cells/treatment). Cells” for “Cells”

The subject of the next experiment is TFEB gene. In words: Real-time PCR of TFEB gene. The conditions noted are these: HBEC-KL; 10 mM acetate 24 hours or 3 uM SAHA 15 hours. The method, then:
At 72 hours after siRNA transfection (post-transfection) and 12 to 24 hours after chemical treatment, total RNA was isolated with the RNeasy miniprep kit (QIAGEN, 74134). After synthesizing complementary DNA (cDNA) using the TOPscript·8 cDNA synthesis kit (Enzynomics, EZ0054), gRT-PCR was performed with TCPreal™ gRCR 2× PreMIX (SYBR Green with low ROX) (Enzynomics, RT501M). GAPDH and beta-actin were used for RNA normalization. qRT-PCR was performed with a StepOne Plus (Applied Biosystems) instrument.

The test system of experiment [5] is TFEB. Kind of experiment: Immunofluorescence of TFEB localization. As to conditions: HBEC-KL; 10 mM acetate 24 hours or 3 uM SAHA 5 hours. The method, then:
Cells were seeded onto coated glass coverslips and maintained in ACL medium for 48 hours. After washing the cells three times with PBS. they were incubated in 3.7% paraformaldehyde for 10 minutes and fixed. Thereafter, the cells were washed three times with PBS and subjected to cell permeabilizaton in PBS containing 0.1% Triton X-100 for 10 minutes. After washing with PBS three times, the sample was blocked for 30 minutes at room temperature with PBS containing 0.1% Triton X-100 and 5% goat serum. Samples were incubated with primary antibody (1:150). followed by incubation with anti-rabbit/mouse Alexa Fluor 488/568 secondary antibody (Thermo Fisher Scientific, A-11001, 11004, 11008. 11011) and ProLong Gold Antifade Mountant with DAPI (Thermo Fisher Scientific, P36931), Images were taken with an Axio imager M2 microscope (Carl Zeiss, […]) equipped with a 63× oil objective and analyzed with ZEN version 3.0 software.

A further experiment deals with SNAI1 gene. In words: Real-time PCR of SNAI1 gene. As to conditions: HBEC-KL; 10 mM acetate, 24 hours. The method, then:
After synthesizing complementary DNA (cDNA) using the TOPscript·8 cDNA synthesis kit (Enzynomics, EZ0054), gRT-PCR was performed with TCPreal™ gRCR 2× PreMIX (SYBR Green with low ROX) (Enzynomics, RT501M). GAPDH and beta-actin were used for RNA normalization. qRT-PCR was performed with a StepOne Plus (Applied Biosystems) instrument.

Take `C=CC(=O)N1CCN(c2nc(=O)n(-c3c(C)ccnc3C(C)C)c3nc(-c4c(O)cccc4F)c(F)cc23)[C@@H](C)C1` [AMG-510]: in the experiment on Snail [1] (in two of the three KL cell lines, AMG-510 1 uM, 48 hours), the Snail expression level result was “increased”. Also, the cell invasiveness entry in the experiment on KL cell lines is “increased”.

Regarding `Cc1c[nH]c(-c2cnc(NCCNc3ccc(C#N)cn3)nc2-c2ccc(Cl)cc2Cl)n1` [CHIR99021], the “expression levels of β-catenin under autophagy inhibition” value in the experiment with β-catenin was “restored”. The “levels of Snail protein under autophagy inhibition” value in the experiment on Snail [2] (CHIR99021 3 uM, 5 hours, in the presence of 50 uM CQ) was “did not restore”.

With `O=C(CCCCCCC(=O)Nc1ccccc1)NO` [SAHA, vorinostat], in the experiment with phospho-RPS6 (p-S6), the “level of phospho-RPS6 (p-S6)” value was “kept constant”. In the experiment on acetylated Snail (3 uM SAHA, 15 hours), the “level of acetylated Snail” value was “increased”. The degree of matrigel-infiltration result in the experiment on HBEC-KL cell line (HBEC-KL, SAHA) was “increased”. Further, in the experiment with TFEB (CLEAR network) (1 uM FK506 with 10 mM acetate 24 hours or 3 uM SAHA 15 hours), the “CLEAR activity under FK506 treatment” value is given as “increased”. In addition, the CLEAR activity entry in the experiment on TFEB (CLEAR network) (10 mM acetate 24 hours or 3 uM SAHA 5 hours) is reported as “increased”. Also, in the experiment on Snail [2] (3 uM SAHA and 50 uM CQ, 24 hours), the “Snail reduction by chloroquine (CQ), upon SAHA treatment” value is recorded as “restored”. Moreover, in the experiment on Snail [3] (pFLAG-Snail WT), the “K48 polyubiquitination of wild-type Snail” value was “reduced” and the “phosphorylation of wild-type Snail” value is “reduce”. Further, in the experiment on Snail [3] (pFLAG-SnailK146R), the “phosphorylation and acetylation of K146R Snail” value is reported as “did not affect”. Further, in the experiment on TFEB [4], the “reduced TFEB protein level in the chloroquine (CQ) treatment condition” value is recorded as “partially restored”, the “acetylated TFEB level” value is listed as “increased”, the “phosphorylated TFEB level” value is “increased” and the “total TFEB protein level” value was “increased”. For the same compound, the autophagy flux result with LC3 is listed as “increased”. In addition, in the experiment with TFEB gene, the “TFEB mRNA level” value was “no significant change”. Further, the “level of nuclear-localized TFEB” value in the experiment on TFEB [5] is on record as “increased”.

In the case of `CC(=O)[O-].[Na+]` [acetate, sodium acetate], the “level of phospho-RPS6 (p-S6)” value with phospho-RPS6 (p-S6) is recorded as “kept constant”. For the same compound, the “Snail protein expression levels” value with Snail [1] (HBEC-KL, acetate, 24 hours) is recorded as “increased”. Also, the “level of acetylated Snail” value with acetylated Snail (10 mM acetate, 24 hours) is “increased”. In addition, the invasiveness result in the experiment on HBEC-KL cell line (KL cells (HBEC-KL), 10 mM acetate, 24 hours) is listed as “increased”. Also, in the experiment with SNAI1 gene, the “Snail mRNA expression levels” value is given as “no effect”. Also, in the experiment with TFEB [4], the “reduced TFEB protein level in the chloroquine (CQ) treatment condition” value is “partially restored”, the “acetylated TFEB level” value is recorded as “increased”, the “phosphorylated TFEB level” value is given as “increased” and the “total TFEB protein level” value is “increased”. In addition, the autophagy flux result in the experiment on LC3 is recorded as “increased”. The “TFEB mRNA level” value in the experiment on TFEB gene is recorded as “no significant change”. For the same compound, the “level of nuclear-localized TFEB” value in the experiment on TFEB [5] was “increased”.
